Measurements published in PubChem BioAssay (NCI).
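Each compound was tested at five concentrations against cells in 96-well plates for 48 hours. At the TGI there is no net growth.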

Assays:
Assay in all cases: growth of human tumour cells (NCI), 48 h
UO-31 renal = system: UO-31 renal
OVCAR-8 ovarian = system: OVCAR-8 ovarian
A549 NSCLC = system: A549 NSCLC
MOLT-4 leukemia = system: MOLT-4 leukemia
NCI/ADR-RES ovarian = system: NCI/ADR-RES ovarian
RXF 393 renal = system: RXF 393 renal
HOP-62 NSCLC = system: HOP-62 NSCLC
HL-60(TB) leukemia = system: HL-60(TB) leukemia
HS 578T breast = system: HS 578T breast
MDA-MB-435 = system: MDA-MB-435
NCI-H460 lung = system: NCI-H460 lung
BT-549 breast = system: BT-549 breast
SK-MEL-5 melanoma = system: SK-MEL-5 melanoma
UACC-257 melanoma = system: UACC-257 melanoma
RPMI-8226 leukemia = system: RPMI-8226 leukemia
SR leukemia = system: SR leukemia

SMILES | TGI (UO-31 renal) [µM] | TGI (OVCAR-8 ovarian) [µM] | TGI (A549 NSCLC) [µM] | TGI (MOLT-4 leukemia) [µM] | TGI (NCI/ADR-RES ovarian) [µM] | TGI (RXF 393 renal) [µM] | TGI (HOP-62 NSCLC) [µM] | TGI (HL-60(TB) leukemia) [µM] | TGI (HS 578T breast) [µM] | TGI (MDA-MB-435) [µM] | TGI (NCI-H460 lung) [µM] | TGI (BT-549 breast) [µM] | TGI (SK-MEL-5 melanoma) [µM] | TGI (UACC-257 melanoma) [µM] | TGI (RPMI-8226 leukemia) [µM] | TGI (SR leukemia) [µM]
NC(N)=NCCC[C@H](N)C(=O)NCC(=O)N[C@@H](CC(=O)O)c1ncc(NC(=O)C(F)(F)F)o1 | > 25 | > 25 | > 25 | > 25 | > 25 | > 25 | > 25 | > 25 | > 25 | > 25 | > 25 | > 25 | > 25 | > 25 | – | –
Cc1ccc(SCC(CF)OC(C)n2cnc3c(=O)[nH]c(N)nc32)cc1 (stereo unspecified) | > 100 | > 100 | > 100 | > 100 | > 100 | – | > 100 | > 100 | > 100 | > 100 | > 100 | > 100 | 47.6 | > 100 | > 100 | > 100
O=C(c1ccc(N=Cc2ccccc2O)cc1)c1ccc(N=Cc2ccccc2O)cc1 | > 100 | – | > 100 | > 100 | > 100 | > 100 | > 100 | > 100 | – | > 100 | > 100 | > 100 | > 100 | – | > 100 | > 100
CCOc1cn(C2CC(O)C(CO)O2)c(=O)[nH]c1=O (stereo unspecified) | > 100 | – | > 100 | > 100 | > 100 | > 100 | > 100 | > 100 | > 100 | > 100 | > 100 | > 100 | > 100 | > 100 | > 100 | –
CC1NC(=O)CC(c2ccccc2)N(N=O)C1c1ccccc1 (stereo unspecified) | > 100 | > 82.7 | > 100 | > 100 | > 62.9 | 53.5 | > 92.7 | > 67.2 | – | – | > 90.2 | – | > 100 | > 100 | 90.8 | –
O=C(NI1OC(=O)c2ccccc21)c1ccc(Cl)cc1 | > 100 | > 100 | > 100 | – | > 100 | > 100 | > 100 | > 100 | – | > 100 | > 100 | > 100 | > 100 | > 100 | > 100 | –
CC12C(=O)CC(CC1=O)C2(C)C | > 100 | > 100 | > 100 | > 100 | > 100 | – | > 100 | > 100 | > 100 | – | > 100 | > 100 | > 100 | > 100 | > 100 | –
CSc1ncnc2c1ncn2C1CC(Oc2ccc(C)cc2)C(COc2ccc(C)cc2)O1 (stereo unspecified) | – | > 100 | > 100 | > 100 | > 100 | – | > 100 | > 100 | > 100 | > 100 | > 100 | > 100 | > 100 | > 100 | > 100 | > 100
CC(=O)OC(/C=C/c1ccccc1)=C(OC(C)C)/C1=C(\c2ccccc2)SCCCSC1=O | > 100 | > 100 | > 100 | > 100 | > 100 | > 100 | > 100 | > 100 | > 100 | > 100 | > 100 | > 100 | > 100 | > 100 | > 100 | –
Oc1c(CN2CCOCC2)ccc2cccnc12 | > 10 | > 10 | > 10 | > 10 | 6.6 | > 10 | > 10 | – | > 10 | > 10 | > 10 | 8.26 | > 10 | > 10 | > 10 | –
Cc1nc(-c2cc3cc([N+](=O)[O-])ccc3oc2=O)cs1 | > 100 | – | > 100 | > 100 | – | > 100 | > 100 | > 100 | > 100 | > 100 | > 100 | > 100 | > 100 | > 100 | > 100 | > 100
C=CCCN1CCc2c([nH]c3ccccc23)C1C(=O)O (stereo unspecified) | > 100 | – | > 100 | > 100 | – | > 100 | > 100 | > 100 | – | – | > 100 | – | > 100 | > 100 | – | > 100
N#CC(NC12CC3CC(CC(C3)C1)C2)c1ccccc1C(F)(F)F (stereo unspecified) | > 100 | > 100 | > 100 | > 100 | – | > 100 | > 100 | > 100 | – | – | > 100 | – | > 100 | – | > 100 | > 100
CCN(CC)C(=S)N/N=C(/C)c1cccc(/C(C)=N\NC(=S)N(CC)CC)n1 | 7.94 | 3.19 | 11.3 | 5.77 | 10.5 | 7.03 | 6.76 | 3.77 | > 100 | 14.9 | 6.36 | – | 8.2 | 11 | 6.17 | 2.4
Cc1ccc(/C=C2\CCCc3ccccc3C2=O)cc1 | > 100 | > 100 | > 100 | 52.8 | 99.3 | – | 60.6 | 30.7 | 30.8 | 8.46 | 32.5 | 54.1 | – | > 100 | 75 | 37.1
O=C(O)Cc1cccc2c(=O)c3ccccc3oc12 | > 100 | > 100 | > 100 | > 100 | > 100 | – | > 100 | > 100 | > 100 | > 100 | > 100 | > 100 | > 100 | > 100 | > 100 | > 100
